Test results reported in US9149038B2, “4-amino-6-(heterocyclic)picolinates and 6-amino-2-(heterocyclic)pyrimidine-4-carboxylates and their use as herbicides” (Dow AgroSciences LLC, priority 2013, dated 2015).
Where two headings read alike, the source gives them in different places.

Columns and labels:
[1] = system: Key Broadleaf Weed and Crop Species; test: Post-Emergent Test II: postemergent herbicidal activity, visual rating after 14 d (Table 7); assay type: in vivo; details: post-emergence, 336 h; for pest or weed control at 35 g/ha: 35 g ai/ha; for pest or weed control at 70 g/ha: 70 g ai/ha; for pest or weed control at 140 g/ha: 140 g ai/ha
How it was run: (§1)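 Track-sprayed young seedlings (first/second true leaf) at 187 L/ha across a 2-fold rate series from the high rate down to 1/16×. Kept in greenhouse at 23-29° C day, subirrigated. Injury rated by eye after 14 d, 0 = no injury, 100 = complete kill.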

[2] = system: Key Grass and Sedge Weeds as well as Grass Crops; test: Post-Emergent Test II: postemergent herbicidal activity, visual rating after 14 d (Table 8); assay type: in vivo; details: post-emergence, 336 h; for pest or weed control at 35 g/ha: 35 g ai/ha; for pest or weed control at 70 g/ha: 70 g ai/ha; for pest or weed control at 140 g/ha: 140 g ai/ha
How it was run: as §1

[3] = ABUTH: velvetleaf (Abutilon theophrasti), read-out: Visual Growth Reduction (%) 14 Days After Application ABUTH
[4] = AMARE: redroot pigweed (Amaranthus retroflexus), read-out: Visual Growth Reduction (%) 14 Days After Application AMARE
[5] = BRSNN: oilseed rape, canola (Brassica napus), read-out: Visual Growth Reduction (%) 14 Days After Application BRSNN
[6] = CHEAL: lambsquarters (Chenopodium album), read-out: Visual Growth Reduction (%) 14 Days After Application CHEAL
[7] = EPHHL: wild poinsettia (Euphorbia heterophylla), read-out: Visual Growth Reduction (%) 14 Days After Application EPHHL
[8] = HELAN: sunflower (Helianthus annuus), read-out: Visual Growth Reduction (%) 14 Days After Application HELAN
[9] = barnyardgrass (Echinochloa crus-galli), read-out: Visual Growth Reduction (%) 14 Days After Application, ECHCG
[10] = giant foxtail (Setaria faberi), read-out: Visual Growth Reduction (%) 14 Days After Application, SETFA
[11] = maize, corn (Zea mays), read-out: Visual Growth Reduction (%) 14 Days After Application, ZEAMX
[12] = rice (Oryza sativa), read-out: Visual Growth Reduction (%) 14 Days After Application, ORYSA
[13] = wheat, spring (Triticum aestivum), read-out: Visual Growth Reduction (%) 14 Days After Application, TRZAS
[14] = yellow nutsedge (Cyperus esculentus), read-out: Visual Growth Reduction (%) 14 Days After Application, CYPES

Compound | pest or weed control at 35 g/ha [1, 3] | pest or weed control at 70 g/ha [1, 3] | pest or weed control at 140 g/ha [1, 3] | pest or weed control at 35 g/ha [1, 4] | pest or weed control at 70 g/ha [1, 4] | pest or weed control at 140 g/ha [1, 4] | pest or weed control at 35 g/ha [1, 5] | pest or weed control at 70 g/ha [1, 5] | pest or weed control at 140 g/ha [1, 5] | pest or weed control at 35 g/ha [1, 6] | pest or weed control at 70 g/ha [1, 6] | pest or weed control at 140 g/ha [1, 6] | pest or weed control at 35 g/ha [1, 7] | pest or weed control at 70 g/ha [1, 7] | pest or weed control at 140 g/ha [1, 7] | pest or weed control at 35 g/ha [1, 8] | pest or weed control at 70 g/ha [1, 8] | pest or weed control at 140 g/ha [1, 8] | pest or weed control at 35 g/ha [2, 9] | pest or weed control at 70 g/ha [2, 9] | further results
COC(=O)c1nc(-c2c(F)ccc3c2OC(F)(F)O3)cc(N)c1Cl [Compound 90, Methyl 4-amino-3-chloro-6-(2,2,5-trifluorobenzo[d][1,3]dioxol-4-yl)picolinate] | 60 to 74% | 75 to 84% | 85 to 94% | 95 to 100% | 95 to 100% | 95 to 100% | 0 to 29% | 0 to 29% | 60 to 74% | 85 to 94% | 95 to 100% | 95 to 100% | 0 to 29% | 0 to 29% | 0 to 29% | 0 to 29% | 0 to 29% | 0 to 29% | 0 to 29% | 0 to 29% | pest or weed control at 140 g/ha [2, 9]: 0 to 29%; pest or weed control at 35 g/ha [2, 10]: 0 to 29%; pest or weed control at 70 g/ha [2, 10]: 0 to 29%; pest or weed control at 140 g/ha [2, 10]: 0 to 29%; pest or weed control at 35 g/ha [2, 11]: 0 to 29%; pest or weed control at 70 g/ha [2, 11]: 0 to 29%; pest or weed control at 140 g/ha [2, 11]: 0 to 29%; pest or weed control at 35 g/ha [2, 12]: 0 to 29%; pest or weed control at 70 g/ha [2, 12]: 0 to 29%; pest or weed control at 140 g/ha [2, 12]: 0 to 29%; pest or weed control at 35 g/ha [2, 13]: 0 to 29%; pest or weed control at 70 g/ha [2, 13]: 0 to 29%; pest or weed control at 140 g/ha [2, 13]: 0 to 29%; pest or weed control at 35 g/ha [2, 14]: 0 to 29%; pest or weed control at 70 g/ha [2, 14]: 0 to 29%; pest or weed control at 140 g/ha [2, 14]: 0 to 29%
Nc1cc(-c2c(F)ccc3c2OC(F)(F)O3)nc(C(=O)O)c1Cl [Compound 91] | 60 to 74% | 75 to 84% | 75 to 84% | 95 to 100% | 95 to 100% | 95 to 100% | 0 to 29% | 45 to 59% | 60 to 74% | 95 to 100% | 95 to 100% | 95 to 100% | 0 to 29% | 0 to 29% | 0 to 29% | 0 to 29% | 0 to 29% | 0 to 29% | 0 to 29% | 0 to 29% | pest or weed control at 140 g/ha [2, 9]: 0 to 29%; pest or weed control at 35 g/ha [2, 10]: 0 to 29%; pest or weed control at 70 g/ha [2, 10]: 0 to 29%; pest or weed control at 140 g/ha [2, 10]: 0 to 29%; pest or weed control at 35 g/ha [2, 11]: 0 to 29%; pest or weed control at 70 g/ha [2, 11]: 0 to 29%; pest or weed control at 140 g/ha [2, 11]: 0 to 29%; pest or weed control at 35 g/ha [2, 12]: 0 to 29%; pest or weed control at 70 g/ha [2, 12]: 0 to 29%; pest or weed control at 140 g/ha [2, 12]: 0 to 29%; pest or weed control at 35 g/ha [2, 13]: 0 to 29%; pest or weed control at 70 g/ha [2, 13]: 0 to 29%; pest or weed control at 140 g/ha [2, 13]: 0 to 29%; pest or weed control at 35 g/ha [2, 14]: 0 to 29%; pest or weed control at 70 g/ha [2, 14]: 0 to 29%; pest or weed control at 140 g/ha [2, 14]: 0 to 29%
COC(=O)c1nc(-c2ccc(F)c3c2OCO3)cc(N)c1Cl [Compound 92] | 60 to 74% | 85 to 94% | 85 to 94% | 95 to 100% | 95 to 100% | 95 to 100% | 30 to 44% | 60 to 74% | 75 to 84% | 95 to 100% | 85 to 94% | 95 to 100% | 0 to 29% | 0 to 29% | 0 to 29% | 60 to 74% | 60 to 74% | 75 to 84% | 0 to 29% | 0 to 29% | pest or weed control at 140 g/ha [2, 9]: 0 to 29%; pest or weed control at 35 g/ha [2, 10]: 0 to 29%; pest or weed control at 70 g/ha [2, 10]: 0 to 29%; pest or weed control at 140 g/ha [2, 10]: 0 to 29%; pest or weed control at 35 g/ha [2, 11]: 0 to 29%; pest or weed control at 70 g/ha [2, 11]: 0 to 29%; pest or weed control at 140 g/ha [2, 11]: 0 to 29%; pest or weed control at 35 g/ha [2, 12]: 0 to 29%; pest or weed control at 70 g/ha [2, 12]: 0 to 29%; pest or weed control at 140 g/ha [2, 12]: 0 to 29%; pest or weed control at 35 g/ha [2, 13]: 0 to 29%; pest or weed control at 70 g/ha [2, 13]: 0 to 29%; pest or weed control at 140 g/ha [2, 13]: 0 to 29%; pest or weed control at 35 g/ha [2, 14]: 0 to 29%; pest or weed control at 70 g/ha [2, 14]: 0 to 29%; pest or weed control at 140 g/ha [2, 14]: 0 to 29%
COC(=O)c1nc(-c2cccc3c2OCO3)cc(N)c1Cl [Compound 93] | 0 to 29% | 0 to 29% | 45 to 59% | 0 to 29% | 0 to 29% | 60 to 74% | 0 to 29% | 30 to 44% | 60 to 74% | 60 to 74% | 75 to 84% | 95 to 100% | 0 to 29% | 0 to 29% | 0 to 29% | 45 to 59% | 60 to 74% | 75 to 84% | 0 to 29% | 0 to 29% | pest or weed control at 140 g/ha [2, 9]: 0 to 29%; pest or weed control at 35 g/ha [2, 10]: 0 to 29%; pest or weed control at 70 g/ha [2, 10]: 0 to 29%; pest or weed control at 140 g/ha [2, 10]: 0 to 29%; pest or weed control at 35 g/ha [2, 11]: 0 to 29%; pest or weed control at 70 g/ha [2, 11]: 0 to 29%; pest or weed control at 140 g/ha [2, 11]: 0 to 29%; pest or weed control at 35 g/ha [2, 12]: 0 to 29%; pest or weed control at 70 g/ha [2, 12]: 0 to 29%; pest or weed control at 140 g/ha [2, 12]: 0 to 29%; pest or weed control at 35 g/ha [2, 13]: 0 to 29%; pest or weed control at 70 g/ha [2, 13]: 0 to 29%; pest or weed control at 140 g/ha [2, 13]: 0 to 29%; pest or weed control at 35 g/ha [2, 14]: 0 to 29%; pest or weed control at 70 g/ha [2, 14]: 0 to 29%; pest or weed control at 140 g/ha [2, 14]: 0 to 29%
